The subject of assay [1] is Potassium-transporting ATPase (Canis familiaris). Nature of the assay: Percent inhibition of gastric proton-pump enzyme H+/K+ ATPase was determined at 50 uM. To be noted: Canis lupus familiaris, Stomach.
Assay [2] addresses Potassium-transporting ATPase (Canis familiaris). The assay can be described thus: Inhibitory activity against dog gastric proton-pump enzyme H+/K+ ATPase.

The results in this text go back to ChEMBL document CHEMBL1125091, “Antiulcer agents. 4-substituted 2-guanidinothiazoles: reversible, competitive, and selective inhibitors of gastric H+,K(+)-ATPase” (J Med Chem, 1990).

Where “and” joins values, the source holds several entries; their conditions need not be identical. Equal entries are not always repeated.

As to `Cc1cc(-c2csc(NC3=NCCN3C)n2)c[nH]1`, the inhibition (as a rule, the drop in the measured response relative to a control, in per cent) in assay [1] came out at 13%.
Consider `N=C(NCc1ccccc1)Nc1nc(-c2ccc[nH]2)cs1`, for which the inhibition in assay [1] was 81%. Also, the IC50 – broadly, the concentration needed to halve the response being measured – in assay [2] was 9 µM.
As to `N=C(N)Nc1nc(-c2ccccc2Cl)cs1`, in assay [1], the inhibition is 71%. Also, the IC50 in assay [2] was 18 µM and 9 µM.
In the case of `Cc1ccc(-c2csc(N=C(N)N)n2)n1S(=O)(=O)c1ccccc1`, in assay [1], the inhibition was 91%. Besides, in assay [2], the IC50 was found to be 7 µM.
With `N=C(N)Nc1cc(Cl)nc(-c2ccccc2)n1`, the inhibition in assay [1] turned out to be 89%.
`NC(N)=Nc1nc(-c2ccccc2)cs1` displayed an IC50 in assay [2] of 40 µM.
For `Cc1ccc2[nH]cc(-c3csc(NC(=N)NCc4ccccc4)n3)c2c1`, in assay [1], the inhibition was determined as 104%. The molecule also gave an IC50 in assay [2] of 0.94 µM.
Regarding `N/C(=N\Cc1ccccc1)Nc1nc(-c2ccccc2O)cs1`, in assay [1], the inhibition was 85%. This molecule also came in with an IC50 in assay [2] of 11 µM.
`N=C(NCc1ccccc1)Nc1nc(-c2c[nH]c3ccccc23)cs1`: the inhibition in assay [1] came to 102%. In assay [2], this molecule showed an IC50 of 1.5 µM.
Turning to `N=C(N)Nc1nc(-c2c[nH]c(CN3CCCCC3)c2)cs1`, the inhibition in assay [1] came to 55%.
On the same count and under the same terms, under `N=C(N)Nc1nc(-c2c[nH]c(C=O)c2)cs1` stands 44%.
For `N=C(NCc1ccccc1)Nc1nc(-c2cc3cc(Cl)ccc3[nH]2)cs1`, the inhibition in assay [1] worked out at 97%. Besides, in assay [2], the IC50 was determined as 9.1 µM.
For the molecule `N=C(N)NCCc1c[nH]c2ccccc12`, the inhibition in assay [1] was 15%.
Regarding `N=C(NCc1ccccc1)Nc1nc(-c2ccc(F)cc2)cs1`, the inhibition in assay [1] came to 35%.
Regarding `Cc1cc(-c2csc(NC(=N)NCc3ccccc3)n2)c[nH]1`, the inhibition in assay [1] turned out to be 97%. This molecule also came in with an IC50 in assay [2] of 11 µM.
With `Cc1cc(-c2csc(NC(=N)N3CCCCC3)n2)c[nH]1`, in assay [1], the inhibition came out at 34%.
Turning to `N/C(=N\Cc1ccccc1)Nc1nc(-c2ccc(N)cc2)cs1`, the inhibition in assay [1] came to 77%. In assay [2], this molecule returned an IC50 of 5.2 µM.
With `Cc1sc(NC(=N)NCc2ccccc2)nc1-c1ccn(S(=O)(=O)c2ccccc2)c1C`, the inhibition in assay [1] was determined as 35%.
Take `CC(=O)Nc1ccc2[nH]cc(-c3csc(NC(=N)NCc4ccccc4)n3)c2c1`: the inhibition in assay [1] was 66%. Also, the midpoint of inhibition in assay [2], the IC50, lay at 23.8 µM.
With `COc1cccc(-c2csc(NC(=N)NCc3ccccc3)n2)c1`, the inhibition in assay [1] stood at 85%. In assay [2], this molecule had an IC50 of 10 µM.
On to `N=C(NCc1ccccc1)Nc1nc(-c2ccc(-c3ccccc3)cc2)cs1`, for which the inhibition in assay [1] came out at 5%.
Consider `COc1ccc(-c2csc(N=C(N)N)n2)cc1OC`, for which the inhibition in assay [1] was determined as 41%.
With `Cc1cc(-c2nc(NC(=N)Nc3ccccc3)sc2C)c[nH]1`, the inhibition in assay [1] was 83%. The same molecule gave a 50% inhibitory concentration (IC50) in assay [2] of 9.8 µM.
For the molecule `Cc1ccc(-c2csc(NC(=N)NCc3ccccc3)n2)cc1`, the inhibition in assay [1] was determined as 16%.
`COc1ccccc1-c1csc(N=C(N)N)n1`: the inhibition in assay [1] amounted to 70%. In assay [2], this molecule had an IC50 of 27 µM.
Take `N=C(NCc1ccccc1)Nc1nc(-c2c[nH]c3ccc(Cl)cc23)cs1`: in assay [1], the inhibition was 92%. Besides, in assay [2], the IC50 is 0.7 µM.
Turning to `Cc1[nH]ccc1-c1csc(N=C(N)N)n1`, in assay [1], the inhibition was found to be 96%. This molecule came in with an IC50 in assay [2] of 7 µM.
Take `COc1ccccc1-c1csc(NC(=N)NCc2ccccc2)n1`: the inhibition in assay [1] stood at 99%. The molecule also yielded an IC50 in assay [2] of 2.3 µM.
On the same counts, the results for `N=C(NCc1ccccc1)Nc1nc(-c2cc3ccccc3[nH]2)cs1` are 61% and 16 µM.
On the same counts, the results for `N=C(N)Nc1nc(-c2c[nH]c3ccccc23)cs1` are 91% and 9 µM.
Regarding `Cc1cc(-c2csc(NC(=N)NCc3ccccc3)n2)cn1S(=O)(=O)c1ccccc1`, the inhibition in assay [1] was determined as 69%.
With `N=C(N)Nc1nc(-c2ccc(F)cc2)cs1`, the inhibition in assay [1] was found to be 61%. This molecule showed an IC50 in assay [2] of 33 µM.
On to `CCOC(=O)c1cc(-c2csc(N=C(N)N)n2)[nH]c1C`, for which, in assay [1], the inhibition was 91%. In addition, in assay [2], the IC50 came out at 7 µM.
On to `Nc1nc(-c2c[nH]c(C=O)c2)cs1`, for which, in assay [1], the inhibition amounted to 9%.
With `Cc1[nH]c(-c2csc(N=C(N)N)n2)cc1CN(C)C`, the inhibition in assay [1] amounted to 87%. Besides, it took 11 µM to reach half-maximal inhibition in assay [2] (IC50).
For the molecule `N=C(N)Nc1nc(-c2cc3ccccc3[nH]2)cs1`, in assay [1], the inhibition is 72%. This molecule showed an IC50 in assay [2] of 14 µM.
On to `CCCCCC/N=C(\N)Nc1nc(-c2c[nH]c(C)c2)cs1`, for which the inhibition in assay [1] was found to be 93%. The IC50 in assay [2] came out at 7 µM.
On the same counts, the results for `Cc1sc(N=C(N)N)nc1-c1c[nH]c(C=O)c1` are 77% and 28 µM.
For `Cn1cc(-c2csc(N=C(N)N)n2)cc1C=O`, the inhibition in assay [1] came out at 44%.
On to `COc1ccc(-c2csc(NC(=N)NCc3ccccc3)n2)cc1`, for which the inhibition in assay [1] stood at 24%.
On to `N=C(N)Nc1nc(-c2cccc(O)c2)cs1`, for which, in assay [1], the inhibition came to 69%. In assay [2], this molecule displayed an IC50 of 23 µM.
For the molecule `Cc1sc(NC(=N)NCc2ccccc2)nc1-c1ccc(O)c(O)c1`, the inhibition in assay [1] turned out to be 103%. This molecule displayed an IC50 in assay [2] of 1.3 µM.
For `Cc1[nH]c2ccccc2c1-c1csc(N=C(N)N)n1`, in assay [1], the inhibition amounted to 85%. This molecule also had an IC50 in assay [2] of 9 µM.
Regarding `CCCCC/N=C(\N)Nc1nc(-c2cccc(OC)c2)cs1`, the inhibition in assay [1] was determined as 25%.
Take `CN(C)Cc1ccccc1-c1csc(N=C(N)N)n1`: the inhibition in assay [1] was determined as 27%.
Turning to `N=C(NCc1ccccc1)Nc1nc(-c2cc3cc(F)ccc3[nH]2)cs1`, the inhibition in assay [1] came to 49%.
On the same count and under the same terms, the figure for `N=C(N)Nc1nc(-c2ccccc2)cs1` is 52%.
Take `CN(C)Cc1cc(-c2csc(N=C(N)N)n2)c[nH]1`: in assay [1], the inhibition turned out to be 94%. For the same molecule, the IC50 in assay [2] came out at 9 µM.
On the same counts, the results for `Cc1cccc2c(-c3csc(NC(=N)NCc4ccccc4)n3)c[nH]c12` are 92% and 1 µM.
`N=C(N)Nc1nc(-c2c[nH]c3ccc(F)cc23)cs1`: the inhibition in assay [1] turned out to be 90%. In addition, in assay [2], 7.4 µM corresponded to half-maximal inhibition (IC50).
For `Cc1[nH]c2ccccc2c1-c1csc(NC(=N)NCc2ccccc2)n1`, the inhibition in assay [1] was 102%. In assay [2], this molecule had an IC50 of 1.7 µM.
In the case of `N#Cc1ccc2[nH]cc(-c3csc(NC(=N)N)n3)c2c1`, in assay [1], the inhibition turned out to be 80%.
Take `N=C(N)Nc1nc(-c2c[nH]c(C(=O)N3CCCCC3)c2)cs1`: the inhibition in assay [1] turned out to be 69%. The same molecule displayed an IC50 in assay [2] of 17 µM.
Turning to `Cc1cc(-c2csc(N=C(N)N)n2)cn1S(=O)(=O)c1ccccc1`, in assay [1], the inhibition came to 92%. The molecule further came in with an IC50 in assay [2] of 2 µM.
On the same counts, the results for `N=C(N)Nc1nc(-c2ccc[nH]2)cs1` are 68% and 30 µM.
In the case of `COc1ccc2[nH]cc(-c3csc(N=C(N)N)n3)c2c1`, in assay [1], the inhibition is 70%. Inhibition in assay [2] was half-maximal at 19 µM (IC50).
On the same counts, the results for `Cc1cc(-c2csc(NC(=N)NCc3ccc(Cl)cc3)n2)c[nH]1` are 95% and 7 µM.
On to `N=C(N)Nc1nc(-c2cc3cc(F)ccc3[nH]2)cs1`, for which the inhibition in assay [1] turned out to be 87%. The same molecule gave an IC50 in assay [2] of 4 µM.
Regarding `Cc1cccc2[nH]cc(-c3csc(NC(=N)NCc4ccccc4)n3)c12`, the inhibition in assay [1] stood at 103%.
As for `Cc1ccc(-c2csc(NC(=N)NCc3ccccc3)n2)[nH]1`, in assay [1], the inhibition worked out at 83%.
For the molecule `Cc1cccc(-c2csc(NC(=N)NCc3ccccc3)n2)c1`, in assay [1], the inhibition was 53%.
For `N=C(N)Nc1nc(-c2ccc(Cl)cc2)cs1`, the inhibition in assay [1] was 48%.
Regarding `N=C(NCc1ccccc1)Nc1nc(-c2cccc(Cl)c2)cs1`, the inhibition in assay [1] came out at 80%.
With `CN(C)c1cccc(-c2csc(NC(=N)N)n2)c1`, the inhibition in assay [1] is 52%.
On the same count and under the same terms, the figure for `Cc1cc(-c2csc(NC3=NCCN3)n2)c[nH]1` is 25%; for `N#Cc1ccc2[nH]cc(-c3csc(NC(=N)NCc4ccccc4)n3)c2c1` it is 50%; for `N=C(N)Nc1nc(-c2ccccc2O)cs1` it is 26%.
For `N=C(NCc1ccccc1)Nc1nc(-c2ccc(Cl)cc2)cs1`, the inhibition in assay [1] is 38%.
In the case of `Cc1cc(-c2csc(NC3=NCCCN3Cc3ccccc3)n2)c[nH]1`, the inhibition in assay [1] stood at 19%.
In assay [2], `NC(N)=Nc1cc(Cl)nc(-c2ccccc2)n1` gave an IC50 of 6 µM.
As to `Cc1ccc(-c2csc(N=C(N)N)n2)cc1`, the inhibition in assay [1] came out at 61%.
The same measure, in the same setting: the figure for `CCCCCCN(C)C(=N)Nc1nc(-c2c[nH]c(C)c2)cs1` is 54%; for `Cc1[nH]c(-c2csc(N=C(N)N)n2)cc1C(=O)N(C)C` it is 33%; for `N/C(=N\Cc1ccccc1)Nc1nc(-c2cccc(O)c2)cs1` it is 8%.
For `Cc1c(-c2csc(NC(=N)NCc3ccccc3)n2)ccn1S(=O)(=O)c1ccccc1`, in assay [1], the inhibition amounted to 54%.
In the case of `N/C(=N\Cc1ccccc1)Nc1nc(-c2ccc(O)cc2)cs1`, in assay [1], the inhibition stood at 49%.
In the case of `COc1ccc(-c2csc(NC(=N)NCc3ccccc3)n2)cc1OC`, in assay [1], the inhibition turned out to be 25%.
For `Cc1sc(NC(=N)NCc2ccccc2)nc1-c1c[nH]c2ccccc12`, the inhibition in assay [1] was 34%.
For `Cc1nc(-c2c[nH]c(C=O)c2)cs1`, the inhibition in assay [1] turned out to be 5%.
Turning to `N=C(N)Nc1ccc(-c2ccccc2)cc1`, the inhibition in assay [1] is 16%.
Take `CCCCCC/N=C(\NC)Nc1nc(-c2c[nH]c(C)c2)cs1`: the inhibition in assay [1] was found to be 68%.
For the molecule `Cc1cc(-c2csc(N)n2)c[nH]1`, the inhibition in assay [1] came to 17%.
In the case of `N=C(N)Nc1nc(-c2ccc(-c3ccccc3)cc2)cs1`, the inhibition in assay [1] was 25%.
With `Cc1sc(N=C(N)NCc2ccccc2)nc1-c1c[nH]c2ccc(Cl)cc12`, the IC50 in assay [2] was found to be 0.7 µM.
Turning to `Cc1cc(-c2csc(C)n2)c[nH]1`, in assay [1], the inhibition was determined as 0%.
Same read-out and setting: under `Cc1ccc(-c2csc(N=C(N)N)n2)n1C` stands 20%.
In turn, `Cc1ccc(-c2csc(N=C(N)NCc3ccccc3)n2)[nH]1` returned an IC50 in assay [2] of 7 µM.
On to `N=C(NCc1ccccc1)Nc1nc(-c2ccccc2)cs1`, for which the inhibition in assay [1] is -1%.
In assay [2], `Cc1cccc2[nH]cc(-c3csc(N=C(N)NCc4ccccc4)n3)c12` had an IC50 of 3.3 µM.
Take `N=C(N)Nc1nc(-c2cccc(N)c2)cs1`: the inhibition in assay [1] was determined as 45%.
As for `N=C(N)Nc1nc(-c2cc[nH]c2)cs1`, the inhibition in assay [1] was 68%.
Still for that read-out and setting: the figure for `N=C(N)Nc1nc(-c2ccccc2)co1` is 0%.
